Where “and” joins values, the source holds several entries; their conditions need not be identical. Equal values may be shown once.
Target: human O-GlcNAcase (Homo sapiens (Human), UniProt O60502)
Assay: Assay for determination of KI values for inhibition of O-GlcNAcase activity
Format: biochemical
Conditions: purified human O-GlcNAcase 0.7 nM; substrate 2 mM 4-Methylumbelliferyl N-acetyl-β-D-glucosaminide; pH 7.0; room temperature; Cheng-Prusoff; read-out: hOGA Ki
Experimental: Assay for Determination of KI Values for Inhibition of O-GlcNAcase Activity
Experimental procedure for kinetic analyses: Enzymatic reactions were carried out in a reaction containing 50 mM NaH2PO4, 100 mM NaCl and 0.1% BSA (pH 7.0) using 2 mM 4-Methylumbelliferyl N-acetyl-β-D-glucosaminide dihydrate (Sigma M2133) dissolved in ddH2O, as a substrate. The amount of purified human O-GlcNAcase enzyme used in the reaction was 0.7 nM. Test compound of varying concentrations was added to the enzyme prior to initiation of the reaction. The reaction was performed at room temperature in a 96-well plate and was initiated with the addition of substrate. The production of fluorescent product was measured every 60 sec for 45 min with a Tecan Infinite M200 plate-reader with excitation at 355 nm and emission detected at […], with 4-Methylumbelliferone (Sigma M1381) used to produce a standard curve. The slope of product production was determined for each concentration of compound tested and plotted, using standard curve fitting algorithms for sigmoidal dose response curves. The values for a four parameter logistic curve fit of the data were determined. KI values were determined using the Cheng-Prusoff equation; the Km of O-GlcNAcase for substrate was 0.2 mM.

human O-GlcNAcase, sequence (O60502 whole entry): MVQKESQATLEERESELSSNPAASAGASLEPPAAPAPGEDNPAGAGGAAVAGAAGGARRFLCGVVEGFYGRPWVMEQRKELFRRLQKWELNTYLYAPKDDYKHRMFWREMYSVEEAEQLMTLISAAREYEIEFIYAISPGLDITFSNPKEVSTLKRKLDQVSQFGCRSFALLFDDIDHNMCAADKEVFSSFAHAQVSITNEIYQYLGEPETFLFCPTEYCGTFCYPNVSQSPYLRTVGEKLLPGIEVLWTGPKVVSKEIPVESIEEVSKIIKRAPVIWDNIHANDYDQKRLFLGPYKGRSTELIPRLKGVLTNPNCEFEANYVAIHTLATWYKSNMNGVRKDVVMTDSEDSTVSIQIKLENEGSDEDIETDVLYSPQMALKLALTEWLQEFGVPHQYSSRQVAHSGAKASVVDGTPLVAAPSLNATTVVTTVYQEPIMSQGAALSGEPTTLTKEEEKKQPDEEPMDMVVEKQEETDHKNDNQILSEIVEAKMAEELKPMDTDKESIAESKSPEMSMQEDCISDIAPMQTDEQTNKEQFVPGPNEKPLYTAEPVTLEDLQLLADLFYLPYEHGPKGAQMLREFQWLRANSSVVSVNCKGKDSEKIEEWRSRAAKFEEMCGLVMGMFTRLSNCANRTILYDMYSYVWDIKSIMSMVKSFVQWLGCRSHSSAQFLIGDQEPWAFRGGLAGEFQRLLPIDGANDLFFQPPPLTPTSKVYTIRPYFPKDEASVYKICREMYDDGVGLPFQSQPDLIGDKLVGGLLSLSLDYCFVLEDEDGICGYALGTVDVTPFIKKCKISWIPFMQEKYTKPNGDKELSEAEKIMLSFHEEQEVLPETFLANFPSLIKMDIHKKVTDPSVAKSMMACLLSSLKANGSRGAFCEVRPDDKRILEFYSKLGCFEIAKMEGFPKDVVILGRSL

Row | SMILES | Ki
1 | COc1ccc(C=C2CCN(Cc3cnc(NC(C)=O)s3)CC2)cc1OC [Example 1, N-(5-((4-(3,4-dimethoxybenzylidene)piperidin-1-yl)methyl)thiazol-2-yl)acetamide] | 0.392 nM
2 | CC(=O)Nc1ncc(CN2CCC(=Cc3ccc(F)nc3)CC2)s1 [Example 2, N-(5-((4-((6-fluoropyridin-3-yl)methylene)piperidin-1-yl)methyl)thiazol-2-yl)acetamide] | 2.08 nM
3 | CC(=O)Nc1ncc(CN2CCC(=Cc3ccc(O)nc3)CC2)s1 [Example 3, N-(5-((4-((6-hydroxypyridin-3-yl)methylene)piperidin-1-yl)methyl)thiazol-2-yl)acetamide] | 1.09 nM
4 | CC(=O)Nc1ncc(CN2CCC(=Cc3ccc(OC(=O)OC(C)(C)C)cc3)CC2)s1 [Example 5, 4-((1-((2-acetamidothiazol-5-yl)methyl)piperidin-4-ylidene)methyl)phenyl tert-butyl carbonate] | 3.53 nM
5 | CC(=O)Nc1ncc(CN2CCC(=Cc3ccc(N)nc3)CC2)s1 [Example 6, N-[5-({4-[(6-aminopyridin-3-yl)methylidene]piperidin-1-yl}methyl)-1,3-thiazol-2-yl]acetamide] | 0.635 nM
6 | CC(=O)Nc1ncc(CN2CCC(=Cc3cccc(CO)c3)CC2)s1 [Example 7, N-(5-((4-(3-(hydroxymethyl)benzylidene)piperidin-1-yl)methyl)thiazol-2-yl)acetamide] | 0.69 nM
7 | CC(=O)Nc1ncc(CN2CCC(=Cc3cn[nH]c3)CC2)s1 [Example 8, N-(5-((4-((1H-pyrazol-4-yl)methylene)piperidin-1-yl)methyl)thiazol-2-yl)acetamide] | 0.387 nM
8 | CC(=O)Nc1ncc(CN2CCC(=Cc3ccc(C(N)=O)cc3)CC2)s1 [Example 9, 4-((1-((2-acetamidothiazol-5-yl)methyl)-piperidin-4-ylidene)methyl)benzamide] | 0.294 nM
9 | CC(=O)Nc1ncc(CN2CCC(=Cc3cccc(CC(N)=O)c3)CC2)s1 [Example 10, 2-(3-((1-((2-acetamidothiazol-5-yl)methyl)-piperidin-4-ylidene)methyl)phenyl) acetamide] | 0.614 nM
10 | CC(=O)Nc1ncc(CN2CCC(=Cc3ccc(OC(F)(F)F)cc3)CC2)s1 [Example 11, N-(5-((4-(4-(trifluoromethoxy)benzylidene)-piperidin-1-yl)methyl)thiazol-2-yl)acetamide] | 3.15 nM
11 | CCc1ccc(C=C2CCN(Cc3cnc(NC(C)=O)s3)CC2)cc1 [Example 12, N-(5-((4-(4-ethylbenzylidene)piperidin-1-yl)methyl)thiazol-2-yl)acetamide] | 0.703 nM
12 | CC(=O)Nc1ncc(CN2CCC(=Cc3ccc(C)cc3)CC2)s1 [Example 13, N-(5-((4-(4-methylbenzylidene)piperidin-1-yl)methyl)thiazol-2-yl)acetamide] | 0.741 nM
13 | CCOc1ccc(C=C2CCN(Cc3cnc(NC(C)=O)s3)CC2)cc1 [Example 14, N-(5-((4-(4-ethoxybenzylidene)piperidin-1-yl)methyl)thiazol-2-yl)acetamide] | 1.45 nM
14 | CC(=O)Nc1ncc(CN2CCC(=Cc3cncnc3)CC2)s1 [Example 15, N-(5-((4-(pyrimidin-5-ylmethylene)piperidin-1-yl)methyl)thiazol-2-yl)acetamide] | 3.37 nM
15 | COc1cccc(C=C2CCN(Cc3cnc(NC(C)=O)s3)CC2)c1OC [Example 16, N-[5-({4-[(2,3-dimethoxyphenyl)methylidene]piperidin-1-yl}methyl)-1,3-thiazol-2-yl]acetamide] | 3.4 nM
16 | CC(=O)Nc1ncc(CN2CCC(=Cc3ccc(S(=O)(=O)N(C)C)cc3)CC2)s1 [Example 17, N-(5-((4-(4-(N,N-dimethylsulfamoyl)benzylidene)piperidin-1-yl)methyl)thiazol-2-yl)acetamide] | 0.0954 nM
17 | CC(=O)Nc1ncc(CN2CCC(=Cc3ccc4[nH]ccc4c3)CC2)s1 [Example 18, N-(5-{[4-(1H-indol-5-ylmethylidene)piperidin-1-yl]methyl}-1,3-thiazol-2-yl)acetamide] | 0.427 nM
18 | CC(=O)Nc1ncc(CN2CCC(=Cc3ccc4c(c3)OCO4)CC2)s1 [Example 19, N-(5-{[4-(1,3-benzodioxol-5-ylmethylidene)piperidin-1-yl]methyl}-1,3-thiazol-2-yl)acetamide] | 1.03 nM
19 | CC(=O)Nc1ncc(CN2CCC(=Cc3ccc4c(c3)OCCO4)CC2)s1 [Example 20, N-(5-{[4-(2,3-dihydro-1,4-benzodioxin-6-ylmethylidene)piperidin-1-yl]methyl}-1,3-thiazol-2-yl)acetamide] | 1.79 nM

Row | SMILES | Ki
20 | CC(=O)Nc1ncc(CN2CCC(=Cc3ccc4c(c3)CNC4=O)CC2)s1 [Example 21, N-(5-((4-((1-oxoisoindolin-5-yl)methylene)piperidin-1-yl)methyl)thiazol-2-yl)acetamide] | 0.268 nM
21 | COc1cc(C=C2CCN(Cc3cnc(NC(C)=O)s3)CC2)ccc1O [Example 22, N-[5-({4-[(4-hydroxy-3-methoxyphenyl)methylidene]piperidin-1-yl}methyl)-1,3-thiazol-2-yl]acetamide] | 0.634 nM
22 | COc1ccc(C=C2CCN(Cc3cnc(NC(C)=O)s3)CC2)cc1O [Example 23, N-[5-({4-[(3-hydroxy-4-methoxyphenyl)methylidene]piperidin-1-yl}methyl)-1,3-thiazol-2-yl]acetamide] | 1.51 nM
23 | COC(=O)c1ccc(C=C2CCN(Cc3cnc(NC(C)=O)s3)CC2)cc1 [Example 24, methyl 4-((1-((2-acetamidothiazol-5-yl)methyl)piperidin-4-ylidene)methyl)benzoate] | 1.37 nM
24 | CC(=O)Nc1ncc(CN2CCC(=Cc3ccc(CF)cc3)CC2)s1 [Example 26, N-(5-((4-(4-(fluoromethyl)benzylidene)piperidin-1-yl)methyl)thiazol-2-yl)acetamide] | 0.167 nM and 0.0753 nM
25 | CC(=O)Nc1ncc(CN2CCC(=Cc3ccc(CCF)cc3)CC2)s1 [Example 27, N-(5-((4-(4-(2-fluoroethyl)-benzylidene)piperidin-1-yl)methyl)thiazol-2-yl)acetamide] | 0.411 nM
26 | CC(=O)N(C)c1ncc(CN2CCC(=Cc3ccc(CCF)cc3)CC2)s1 [Example 28, N-(5-((4-(4-(2-fluoroethyl)benzylidene)-piperidin-1-yl)methyl)thiazol-2-yl)-N-methylacetamide] | 5.71 nM
27 | CC(=O)Nc1ncc(CN2CCC(=Cc3ccc(C(=O)O)cc3)CC2)s1 [Example 29, 4-[(1-{[2-(acetylamino)-1,3-thiazol-5-yl]methyl}piperidin-4-ylidene)methyl]benzoic acid] | 0.324 nM
28 | CNC(=O)c1ccc(C=C2CCN(Cc3cnc(NC(C)=O)s3)CC2)cc1 [Example 30, 4-[(1-{[2-(acetylamino)-1,3-thiazol-5-yl]methyl}piperidin-4-ylidene)methyl]-N-methylbenzamide] | 0.43 nM
29 | CC(=O)Nc1ncc(CN2CCC(=Cc3ccc(C(=O)N(C)C)cc3)CC2)s1 [Example 31, 4-((1-((2-acetamidothiazol-5-yl)methyl)piperidin-4-ylidene)methyl)-N,N-dimethylbenzamide] | 0.117 nM
30 | CC(=O)Nc1ncc(CN2CCC(=Cc3ccc(F)cc3)CC2)s1 [Example 32, N-[5-({4-[(4-fluorophenyl)methylidene]piperidin-1-yl}methyl)-1,3-thiazol-2-yl]acetamide] | 2.7 nM
31 | CC(=O)Nc1ncc(CN2CCC(=Cc3ccccc3)CC2)s1 [Example 33, N-(5-{[4-(phenyl-methylidene)piperidin-1-yl]methyl}-1,3-thiazol-2-yl)acetamide] | 1.75 nM
32 | CC(=O)Nc1ncc(CN2CC/C(=C/c3ccccc3)C[C@@H]2C)s1 [Example 34, (S,Z)-N-(5-{(4-benzylidene-2-methylpiperidin-1-yl)methyl)thiazol-2-yl)acetamide] | 1.04 nM
33 | CC(=O)Nc1ncc(CN2CC/C(=C/c3ccccc3)C[C@H]2C)s1 [Example 35, (R,Z)-N-(5-((4-benzylidene-2-methylpiperidin-1-yl)methyl)thiazol-2-yl)acetamide] | 56.6 nM
34 | CC(=O)Nc1ncc(CN2CC/C(=C\c3ccccc3)C[C@H]2C)s1 [Example 36, (R,E)-N-(5-((4-benzylidene-2-methylpiperidin-1-yl)methyl)thiazol-2-yl)acetamide] | 412 nM
35 | CC(=O)Nc1ncc(CN2CC/C(=C\c3ccccc3)C[C@@H]2C)s1 [Example 37, (S,E)-N-(5-((4-benzylidene-2-methylpiperidin-1-yl)methyl)thiazol-2-yl)acetamide] | 29.8 nM
36 | COc1ccc(/C=C2/CCN(Cc3cnc(NC(C)=O)s3)[C@@H](C)C2)cc1 [Example 38, (S,Z)-N-(5-((4-(4-methoxybenzylidene)-2-methylpiperidin-1-yl)methyl)thiazol-2-yl)acetamide] | 0.287 nM
37 | COc1ccc(/C=C2\CCN(Cc3cnc(NC(C)=O)s3)[C@H](C)C2)cc1 [Example 39, (R,E)-N-(5-((4-(4-methoxybenzylidene)-2-methylpiperidin-1-yl)methyl)thiazol-2-yl)acetamide] | 126 nM
38 | COc1ccc(/C=C2/CCN(Cc3cnc(NC(C)=O)s3)[C@H](C)C2)cc1 [Example 40, (R,Z)-N-(5-((4-(4-methoxybenzylidene)-2-methylpiperidin-1-yl)methyl)thiazol-2-yl)acetamide] | 71.2 nM
